The text below walks through data of ChEMBL document CHEMBL1148801, “Structural modification of the P2' position of 2,7-dialkyl-substituted 5(S)-amino-4(S)-hydroxy-8-phenyl-octanecarboxamides: the discovery of aliskiren, a potent nonpeptide human renin inhibitor active after once daily dosing in marmosets” (J Med Chem, 2007).

Among the targets are Cathepsin D (Homo sapiens, UniProt P07339); Beta-secretase 1 (Homo sapiens, UniProt P56817); Pepsin A (Homo sapiens, UniProt P0DJD9).
The target in series [1] is T1, Renin (Homo sapiens, UniProt P00797).
T1 sequence (P00797 whole entry): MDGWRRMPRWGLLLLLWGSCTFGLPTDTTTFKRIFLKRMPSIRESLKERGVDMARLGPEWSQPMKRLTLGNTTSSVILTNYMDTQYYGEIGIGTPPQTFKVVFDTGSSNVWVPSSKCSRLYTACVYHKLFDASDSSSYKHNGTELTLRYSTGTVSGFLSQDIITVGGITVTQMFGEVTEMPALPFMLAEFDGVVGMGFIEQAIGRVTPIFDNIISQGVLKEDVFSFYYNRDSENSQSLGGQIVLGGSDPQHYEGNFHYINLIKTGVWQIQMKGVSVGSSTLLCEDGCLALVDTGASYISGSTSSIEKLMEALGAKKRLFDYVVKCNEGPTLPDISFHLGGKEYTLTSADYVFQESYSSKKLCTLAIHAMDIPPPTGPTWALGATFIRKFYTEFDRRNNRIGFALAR

Series [2] concerns the target T1, Renin. The source holds these as a separate data set.
For series [3], the target named is T2, Renin (Callithrix jacchus, UniProt Q9TSZ1).
T2 sequence (Q9TSZ1 whole entry): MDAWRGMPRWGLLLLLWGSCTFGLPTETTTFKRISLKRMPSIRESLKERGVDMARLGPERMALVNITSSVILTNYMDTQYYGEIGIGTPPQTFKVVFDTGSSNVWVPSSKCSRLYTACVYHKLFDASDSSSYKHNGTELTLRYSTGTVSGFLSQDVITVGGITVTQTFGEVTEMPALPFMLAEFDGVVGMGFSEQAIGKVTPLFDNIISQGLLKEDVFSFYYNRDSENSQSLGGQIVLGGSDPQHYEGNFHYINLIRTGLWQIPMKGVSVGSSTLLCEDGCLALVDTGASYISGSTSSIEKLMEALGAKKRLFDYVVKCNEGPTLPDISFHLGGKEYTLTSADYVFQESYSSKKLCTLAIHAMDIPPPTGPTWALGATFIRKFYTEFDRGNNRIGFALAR
The format is cell-free, Plasma.

The nature of series [4]: physchem.
Series [5] can be described thus: physchem. Conditions: octanol/water, pH 7.4.
Series [6] is described as follows: in vivo. Particulars: marmoset, po, 3 mg/kg.
Series [7] can be described thus: physchem. Particulars: water.
Another series concerns the target T3, Cathepsin E (Homo sapiens, UniProt P14091).
T3 sequence (P14091 whole entry): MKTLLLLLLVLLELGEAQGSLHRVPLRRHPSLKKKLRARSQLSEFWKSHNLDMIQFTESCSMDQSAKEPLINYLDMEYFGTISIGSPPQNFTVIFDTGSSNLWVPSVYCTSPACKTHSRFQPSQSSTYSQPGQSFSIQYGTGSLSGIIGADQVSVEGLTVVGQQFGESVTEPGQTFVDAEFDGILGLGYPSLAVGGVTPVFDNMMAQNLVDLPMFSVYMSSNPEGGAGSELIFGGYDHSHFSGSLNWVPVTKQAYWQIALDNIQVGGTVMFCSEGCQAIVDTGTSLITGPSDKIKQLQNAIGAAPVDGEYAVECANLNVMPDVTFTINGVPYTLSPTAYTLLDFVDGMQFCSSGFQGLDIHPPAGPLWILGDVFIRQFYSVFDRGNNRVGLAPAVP

A short description of series [8]: in vivo. Conditions: marmoset.
A short description of series [9]: in vivo. Conditions: rat, po.
The nature of series [10]: in vivo. Particulars: dog, po.
Series [11] in a line: physchem. Particulars: octanol/water, pH 6.8.
The nature of series [12]: physchem. The source holds these as a separate data set.
Series [13] can be described thus: physchem. Particulars: buffer, pH 7.4.
The species named for the next series is Callithrix jacchus. The format is functional, Plasma.

For orientation: IC50 means the concentration that inhibits the measured activity by half. Broadly, the pKa is the pH at which an ionisable group is half protonated. A lower pKa goes with a stronger acid or weaker base. One may read the logD as the decadic logarithm of the distribution of all forms, ionised or not, between an organic phase and buffer at a given pH. Read a high logD as a more lipophilic compound. As usually defined, the bioavailability is the share of a dose that reaches the circulation, judged against a reference dose that is usually intravenous. Read a high bioavailability as much systemic uptake. By solubility is commonly meant how much of the substance goes into solution per volume. What is called half-life is the time in which the quantity being followed falls by half. A word on the Inhibition: it is how much of the control response was suppressed. Lower therefore signals little suppression.

Some results are limits rather than exact numbers.

Chain of Beta-secretase 1 (P56817 whole entry): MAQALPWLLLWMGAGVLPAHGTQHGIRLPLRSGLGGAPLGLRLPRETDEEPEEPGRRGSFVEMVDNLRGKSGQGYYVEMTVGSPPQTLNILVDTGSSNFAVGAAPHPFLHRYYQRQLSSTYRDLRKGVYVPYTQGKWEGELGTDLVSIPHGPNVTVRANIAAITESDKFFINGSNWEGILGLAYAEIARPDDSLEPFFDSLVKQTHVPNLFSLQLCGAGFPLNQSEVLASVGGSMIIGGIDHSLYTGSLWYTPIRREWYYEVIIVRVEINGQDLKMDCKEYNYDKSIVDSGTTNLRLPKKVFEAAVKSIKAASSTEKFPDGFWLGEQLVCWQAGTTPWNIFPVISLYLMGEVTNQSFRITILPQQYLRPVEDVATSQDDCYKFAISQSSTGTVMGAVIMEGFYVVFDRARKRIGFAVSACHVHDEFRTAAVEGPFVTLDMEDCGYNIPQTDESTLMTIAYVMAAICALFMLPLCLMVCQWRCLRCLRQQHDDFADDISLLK
Chain of Pepsin A (P0DJD9 whole entry): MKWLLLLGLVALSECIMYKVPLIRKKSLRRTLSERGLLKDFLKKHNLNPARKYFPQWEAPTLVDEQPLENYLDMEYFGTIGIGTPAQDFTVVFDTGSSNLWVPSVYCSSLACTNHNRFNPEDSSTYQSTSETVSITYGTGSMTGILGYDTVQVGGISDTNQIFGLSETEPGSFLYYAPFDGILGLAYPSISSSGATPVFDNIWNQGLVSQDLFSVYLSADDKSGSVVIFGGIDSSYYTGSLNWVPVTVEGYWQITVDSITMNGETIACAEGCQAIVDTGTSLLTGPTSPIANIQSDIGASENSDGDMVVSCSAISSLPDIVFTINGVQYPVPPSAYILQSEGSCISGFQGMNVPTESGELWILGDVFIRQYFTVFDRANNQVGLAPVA
Chain of Cathepsin D (P07339 65-162 limits assumed): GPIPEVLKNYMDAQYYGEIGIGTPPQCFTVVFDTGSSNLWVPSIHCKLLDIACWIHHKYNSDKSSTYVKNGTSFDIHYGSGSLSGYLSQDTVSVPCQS
Chain of Cathepsin D (P07339 169-412 limits assumed): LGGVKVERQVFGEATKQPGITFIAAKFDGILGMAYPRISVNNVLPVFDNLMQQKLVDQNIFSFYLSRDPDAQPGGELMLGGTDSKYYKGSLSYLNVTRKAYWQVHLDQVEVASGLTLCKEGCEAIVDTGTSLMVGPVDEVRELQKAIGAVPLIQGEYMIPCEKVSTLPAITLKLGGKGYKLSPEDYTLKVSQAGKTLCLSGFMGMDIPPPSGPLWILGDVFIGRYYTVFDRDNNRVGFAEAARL

In the case of `COCCCCc1cc(C[C@@H](C[C@H](N)[C@@H](O)C[C@H](C(=O)NCC(C)(C)C(N)=O)C(C)C)C(C)C)ccc1OC.Cl`, the figures for the IC50 against Renin [1], against Renin [2] and on Renin [3] were 1 nM, 3 nM and 4 nM, respectively. The pKa in “physchem [4]” stood at 9.44. The molecule further had a logD in the series “physchem [5]” of 3.31. The molecule also displayed a bioavailability in “in vivo [6]” of 8%.

For the molecule `COCCCOc1cc(C[C@@H](C[C@H](N)[C@@H](O)C[C@H](C(=O)NCCN2CCOCC2)C(C)C)C(C)C)ccc1OC`, the 50% inhibitory concentration (IC50) on Renin [1] worked out at 0.4 nM; on Renin [2], 1 nM; on Renin [3] it was 3 nM.

On to `CC[C@H](NC(=O)[C@@H](C[C@H](O)[C@@H](N)C[C@H](Cc1ccc(OC)c(OCCCOC)c1)C(C)C)C(C)C)C(N)=O`, for which the figures for the IC50 at Renin [1] and at Renin [3] were 0.8 nM and 1 nM, respectively.

Turning to `COCCCOc1cc(C[C@@H](C[C@H](N)[C@@H](O)C[C@H](C(=O)NC[C@H]2CCC(=O)N2)C(C)C)C(C)C)ccc1OC.Cl`, the IC50 came to 2 nM at Renin [1], 1 nM against Renin [2] and 2 nM at Renin [3]. The molecule further displayed a solubility in “physchem [7]” of over 100 mg/mL. This molecule also yielded a pKa in “physchem [4]” of 9.09. In the series “physchem [5]”, the logD worked out at 2.06.

As to `COCCCOc1cc(C[C@@H](C[C@H](N)[C@@H](O)C[C@H](C(=O)NCC(C)(C)C(N)=O)C(C)C)C(C)C)ccc1OC.Cl`, the IC50 against Cathepsin D, against Beta-secretase 1, on Cathepsin E and at Pepsin A was over 10000 nM throughout. In addition, the half-life in the series “in vivo [8]” was 8.7 h. In addition, the bioavailability in the series “in vivo [9]” worked out at 2.4%; in “in vivo [6]”, 16%; in the series “in vivo [10]” it was 32%.

Take `COCCCOc1cc(C[C@@H](C[C@H](N)[C@@H](O)C[C@H](C(=O)NCC(C)(C)N2CCOCC2)C(C)C)C(C)C)ccc1OC`: the IC50 came out at 0.6 nM on Renin [1], 2 nM against Renin [2] and 18 nM at Renin [3].

Regarding `COCCCOc1cc(C[C@@H](C[C@H](N)[C@@H](O)C[C@H](C(=O)NC[C@@H]2CCC(=O)N2)C(C)C)C(C)C)ccc1OC.Cl`, the IC50 at Renin [1] stood at 0.6 nM; against Renin [2], 0.9 nM; against Renin [3], 3 nM. Further, in “in vivo [6]”, the bioavailability came to 22%.

With `COCCCOc1cc(C[C@@H](C[C@H](N)[C@@H](O)C[C@H](C(=O)NCC(C)(C)C(=O)O)C(C)C)C(C)C)ccc1OC`, the IC50 is 3 nM against Renin [1], 13 nM against Renin [2] and 13 nM on Renin [3].

The molecule `COCCCOc1cc(C[C@@H](C[C@H](N)[C@@H](O)C[C@H](C(=O)NCCC(=O)N(C)C)C(C)C)C(C)C)ccc1OC` returned a pKa in “physchem [4]” of 9.4. For the same molecule, the logD in the series “physchem [5]” worked out at 2.48.

`COCCCCc1cc(C[C@@H](C[C@H](N)[C@@H](O)C[C@H](C(=O)NCCN2CCOCC2)C(C)C)C(C)C)ccc1OC.Cl`: the IC50 at Renin [1] amounted to 2 nM; against Renin [2], 0.9 nM; against Renin [3], 1 nM. In “physchem [4]”, the pKa came to 6.01. Besides, in “physchem [5]”, the logD was 2.85. Besides, in “in vivo [6]”, the bioavailability was determined as 30%.

Take `COCCCOc1cc(C[C@@H](C[C@H](N)[C@@H](O)C[C@H](C(=O)NCC(C)(C)C(N)=O)C(C)C)C(C)C)ccc1OC.COCCCOc1cc(C[C@@H](C[C@H](N)[C@@H](O)C[C@H](C(=O)NCC(C)(C)C(N)=O)C(C)C)C(C)C)ccc1OC.O=C(O)/C=C/C(=O)O` [ALISKIREN FUMARATE]: the logD in “physchem [11]” is 0.1; in “physchem [5]”, 2.5. Besides, the pKa in the series “physchem [4]” amounted to 9.2. The solubility in “physchem [12]” was 0.44 mg/mL; in “physchem [13]”, over 100 mg/mL.

Regarding `CNC(=O)C(C)(C)CNC(=O)[C@@H](C[C@H](O)[C@@H](N)C[C@H](Cc1ccc(OC)c(OCCCOC)c1)C(C)C)C(C)C.Cl`, the IC50 on Renin [1] came to 0.4 nM; on Renin [2] it was 0.7 nM; against Renin [3], 2 nM. The same molecule came in with a bioavailability in the series “in vivo [6]” of 25%.

For `COCCCOc1cc(C[C@@H](C[C@H](N)[C@@H](O)C[C@H](C(=O)NCCC(=O)N(C)C)C(C)C)C(C)C)ccc1OC.Cl`, the bioavailability in “in vivo [6]” was 14%.

Consider `COCCCOc1cc(C[C@@H](C[C@H](N)[C@@H](O)C[C@H](C(=O)NC(C)CN2CCOCC2)C(C)C)C(C)C)ccc1OC` (stereo partly specified), for which the IC50 at Renin [1] was 3 nM; against Renin [3], 9 nM.

Consider `COCCCOc1cc(C[C@@H](C[C@H](N)[C@@H](O)C[C@H](C(=O)N[C@@H](C)CC(N)=O)C(C)C)C(C)C)ccc1OC`, for which the IC50 came out at 1 nM at Renin [1], 2 nM on Renin [2] and 3 nM at Renin [3].

Turning to `COCCCOc1cc(C[C@@H](C[C@H](N)[C@@H](O)C[C@H](C(=O)NCCCN2CCOCC2)C(C)C)C(C)C)ccc1OC`, the IC50 against Renin [1], on Renin [2] and against Renin [3] was 3 nM in each case.

Regarding `COCCCOc1cc(C[C@@H](C[C@H](N)[C@@H](O)C[C@H](C(=O)NC(C)(C)C(N)=O)C(C)C)C(C)C)ccc1OC`, the IC50 was found to be 13 nM against Renin [1], 100 nM at Renin [2] and 200 nM against Renin [3].

In the case of `COCCCOc1cc(C[C@@H](C[C@H](N)[C@@H](O)C[C@H](C(=O)NC(C)(C)CN2CCOCC2)C(C)C)C(C)C)ccc1OC`, the IC50 came out at 16 nM against Renin [1] and 27 nM against Renin [2].

Consider `COCCCOc1cc(C[C@@H](C[C@H](N)[C@@H](O)C[C@H](C(=O)NCCc2nn[nH]n2)C(C)C)C(C)C)ccc1OC`, for which the IC50 at Renin [1], against Renin [2] and at Renin [3] was 2 nM each time.

For the molecule `COCCCOc1cc(C[C@@H](C[C@H](N)[C@@H](O)C[C@H](C(=O)N[C@@H](CO)C(N)=O)C(C)C)C(C)C)ccc1OC`, the IC50 at Renin [1] is 2 nM; at Renin [2], 3 nM; at Renin [3], 6 nM.

On to `CCCCNC(=O)[C@@H](C[C@H](O)[C@@H](N)C[C@H](Cc1ccc(OC)c(OCCCOC)c1)C(C)C)C(C)C.Cl`, for which the Inhibition in the series listed under Callithrix jacchus came to 79%.

For `COCCCOc1cc(C[C@@H](C[C@H](N)[C@@H](O)C[C@H](C(=O)N[C@H](C)CC(N)=O)C(C)C)C(C)C)ccc1OC`, the IC50 was 6 nM on Renin [1], 57 nM against Renin [2] and 28 nM on Renin [3].
